# Earlier results, collected in patent publication US10399716B2, “Personal care compositions and hangers” (The Procter & Gamble Company, priority 2014, dated 2019).
row,Log (water Solubility in mol/L) [log mol/L],SMILES
1,−2.46,Oc1cc(Cl)ccc1Oc1ccc(Cl)cc1Cl [Triclosan]
2,−1.91,CCOC(=O)c1ccc(O)cc1 [ethyl paraben]
3,−1.41,O=C(O)c1ccccc1O [Salicylic acid]
4,−0.83,OCCc1ccccc1 [phenethyl alcohol]
5,−0.64,OCCOc1ccccc1 [Phenoxyethanol]
6,−3.08,CCCCCCC(O)CO (stereo not drawn) [caprylyl glycol]
7,−0.47,OCc1ccccc1 [benzyl Alcohol]
8,−0.33,C/C=C/C=C/C(=O)O [sorbic acid]
9,−3.15,C=CCCCCCCCCC(=O)O [Undecylenic Acid]
